Test results taken from ChEMBL document CHEMBL2057116, “A novel tetrahydrobenzoangelicin with dark and photo biological activity” (Bioorg Med Chem, 2012).
Active and inactive are the calls of the source. The rule behind the calls is not given here.

Experiments:
[1] = target: DNA topoisomerase 2-alpha (Homo sapiens) (UniProt P11388); test: Inhibition of human recombinant topoisomerase 2alpha-mediated pBR322 DNA relaxation at 8 uM after 60 mins by agarose gel electrophoretic analysis
[2] = target: DNA topoisomerase 2-alpha (Homo sapiens) (UniProt P11388); test: Inhibition of human recombinant topoisomerase 2alpha-mediated pBR322 DNA complex formation at 8 uM after 60 mins by agarose gel electrophoresis
[3] = test system: HeLa; test: Ratio of IC50 for 8-MOP to compound IC50 for human HeLa cells incubated for 1 hr with inhibitor followed by UV irradiation measured after 24 hrs by trypan blue dye assay; format: functional
[4] = target: DNA topoisomerase 2-alpha (Homo sapiens) (UniProt P11388); test: Inhibition of human recombinant topoisomerase 2alpha-mediated pBR322 DNA relaxation after 60 mins by agarose gel electrophoretic analysis
[5] = test system: HeLa; test: Antiproliferative activity against human HeLa cells after 24 hrs by trypan blue dye assay; format: functional, cell-based
[6] = test system: Nucleic Acid; test: Binding affinity to salmon testes DNA assessed as change in linear dichroism at compound to DNA ratio of 0.02 to 0.08 by circular dichroism analysis; format: nucleic-acid assay; conditions: Salmonidae
[7] = test system: A-431; test: Ratio of IC50 for 8-MOP to compound IC50 for human A431 cells incubated for 1 hr with inhibitor followed by UV irradiation measured after 24 hrs by trypan blue dye assay; format: functional
[8] = target: DNA topoisomerase 2-alpha (Homo sapiens) (UniProt P11388); test: Inhibition of human recombinant topoisomerase 2alpha-mediated pBR322 DNA complex formation at 10 uM after 60 mins by agarose gel electrophoresis
[9] = target: DNA topoisomerase 2-alpha (Homo sapiens) (UniProt P11388); test: Inhibition of human recombinant topoisomerase 2alpha-mediated pBR322 DNA relaxation at 10 uM after 60 mins by agarose gel electrophoretic analysis
[10] = target: DNA topoisomerase 2-alpha (Homo sapiens) (UniProt P11388); test: Inhibition of human recombinant topoisomerase 2alpha-mediated pBR322 DNA relaxation at 5 uM after 60 mins by agarose gel electrophoretic analysis
[11] = test system: HeLa; test: Antiproliferative activity against human HeLa cells incubated for 1 hr with inhibitor followed by UV irradiation measured after 24 hrs by trypan blue dye assay; format: functional, cell-based; conditions: light or radiation study
[12] = test system: A-431; test: Antiproliferative activity against human A431 cells after 24 hrs by trypan blue dye assay; format: functional, cell-based; conditions: A-431, 24 h
[13] = test system: A-431; test: Antiproliferative activity against human A431 cells incubated for 1 hr with inhibitor followed by UV irradiation measured after 24 hrs by trypan blue dye assay; format: functional, cell-based; conditions: A-431, light or radiation study
[14] = test system: Nucleic Acid; test: Photoaddition to salmon testes DNA assessed as thymine-photoadduct formation by UV-Vis spectrophotometric analysis; format: nucleic-acid assay; conditions: Salmonidae

DNA topoisomerase 2-alpha (Homo sapiens), sequence (P11388 whole entry): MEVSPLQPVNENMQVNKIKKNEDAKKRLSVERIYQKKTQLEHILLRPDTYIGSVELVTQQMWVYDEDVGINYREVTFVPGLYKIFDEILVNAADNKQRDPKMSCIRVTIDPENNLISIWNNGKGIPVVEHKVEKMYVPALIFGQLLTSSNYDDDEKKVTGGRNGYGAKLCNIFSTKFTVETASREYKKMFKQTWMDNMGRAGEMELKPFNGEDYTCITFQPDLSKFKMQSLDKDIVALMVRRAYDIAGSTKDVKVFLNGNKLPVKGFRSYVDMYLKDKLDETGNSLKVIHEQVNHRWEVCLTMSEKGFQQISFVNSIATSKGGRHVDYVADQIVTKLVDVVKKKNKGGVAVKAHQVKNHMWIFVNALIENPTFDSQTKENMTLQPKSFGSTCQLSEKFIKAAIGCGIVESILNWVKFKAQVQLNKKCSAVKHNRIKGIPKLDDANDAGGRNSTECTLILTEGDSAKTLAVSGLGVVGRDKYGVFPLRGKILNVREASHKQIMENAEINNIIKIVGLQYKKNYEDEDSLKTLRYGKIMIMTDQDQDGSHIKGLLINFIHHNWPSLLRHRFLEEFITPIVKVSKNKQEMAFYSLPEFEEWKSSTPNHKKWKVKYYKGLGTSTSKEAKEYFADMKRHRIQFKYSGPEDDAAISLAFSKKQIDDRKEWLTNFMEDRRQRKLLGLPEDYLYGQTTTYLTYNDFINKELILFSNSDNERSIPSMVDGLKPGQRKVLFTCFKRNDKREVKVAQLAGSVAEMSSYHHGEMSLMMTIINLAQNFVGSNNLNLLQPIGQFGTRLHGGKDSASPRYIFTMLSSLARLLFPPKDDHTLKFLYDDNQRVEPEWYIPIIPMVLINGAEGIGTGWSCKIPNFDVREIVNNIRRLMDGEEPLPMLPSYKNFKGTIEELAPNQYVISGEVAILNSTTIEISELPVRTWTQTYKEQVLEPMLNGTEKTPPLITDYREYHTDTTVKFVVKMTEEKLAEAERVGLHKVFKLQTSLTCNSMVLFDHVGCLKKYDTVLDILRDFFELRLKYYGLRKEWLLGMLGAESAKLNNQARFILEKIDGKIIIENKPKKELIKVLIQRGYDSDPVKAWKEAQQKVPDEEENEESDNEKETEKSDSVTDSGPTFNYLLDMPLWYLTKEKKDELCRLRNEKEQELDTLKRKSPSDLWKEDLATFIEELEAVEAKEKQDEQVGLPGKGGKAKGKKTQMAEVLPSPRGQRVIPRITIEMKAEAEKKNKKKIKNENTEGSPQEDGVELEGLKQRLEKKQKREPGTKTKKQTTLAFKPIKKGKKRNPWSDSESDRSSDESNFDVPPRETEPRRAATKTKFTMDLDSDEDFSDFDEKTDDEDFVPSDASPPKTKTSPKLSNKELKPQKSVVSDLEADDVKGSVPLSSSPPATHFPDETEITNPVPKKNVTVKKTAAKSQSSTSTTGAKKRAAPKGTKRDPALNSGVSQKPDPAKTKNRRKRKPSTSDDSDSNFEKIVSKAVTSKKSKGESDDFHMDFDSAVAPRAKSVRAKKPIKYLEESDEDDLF

Structure (SMILES) | inhibition [1] | inhibition [2] | Ratio IC50 [3] | inhibition [4] | IC50 [5] | Activity [6] | Ratio IC50 [7] | inhibition [8] | inhibition [9] | inhibition [10] | IC50 [11] | IC50 [12] | IC50 [13] | Activity [14]
COc1cc(NS(C)(=O)=O)ccc1Nc1c2ccccc2nc2ccccc12 | Active | Active |  |  |  |  |  |  |  |  |  |  |  | 
Cc1cc(=O)oc2c1c(OCCCN(C)C)cc1oc3c(c12)CCCC3 |  |  | 5.9 | Dose-dependent effect | 7.2 µM | Active | 5.9 | inactive | Active | Active | 0.4 µM | 6.7 µM | 2 µM | Active
COc1c2occc2cc2ccc(=O)oc12 [METHOXSALEN] |  |  |  |  | > 30 µM |  |  |  |  |  |  | > 30 µM | 25 µM | 
Cc1cc(=O)oc2c1c(OCCCN(C)C)cc1oc3ccccc3c12 |  |  | 5.9 |  | > 20 µM |  | 5.9 |  |  |  | 1.4 µM | > 20 µM | 4.2 µM | 
